Assay results as given in ChEMBL document CHEMBL4364264, “Tetrazole hybrids with potential anticancer activity” (Eur J Med Chem, 2019).
Values after ≈ are worked out from the molar mass of the structure shown.

Experiments:
[1] = test system: HCT-116; experiment: Cytotoxicity against human HCT116 cells; format: functional, cell-based
[2] = test system: PC-3; experiment: Cytotoxicity against human PC3 cells; format: functional, cell-based
[3] = test system: PC-3; experiment: cells; settings: Homo sapiens, PC-3, 48 h
[4] = test system: HT-29; experiment: cells; settings: Homo sapiens, HT-29, 48 h
Description: Antiproliferative activity against human HT-29 cells after 48 hrs by MTT assay

[5] = test system: PANC-1; experiment: Cytotoxicity against human PANC1 cells; format: functional
[6] = test system: SiHa; experiment: Cytotoxicity against human SiHa cells; format: functional
[7] = test system: MDA-MB-231; experiment: Cytotoxicity against human MDA-MB-231 cells; format: functional
[8] = test system: HeLa; experiment: Cytotoxicity against human HeLa cells; format: functional, cell-based
[9] = test system: SK-BR-3; experiment: Cytotoxicity against human SKBR3 cells; format: functional, cell-based
[10] = test system: Caco-2; experiment: Cytotoxicity against human Caco2 cells; format: functional, cell-based
[11] = test system: MCF7; experiment: Cytotoxicity against human MCF7 cells; format: functional, cell-based
[12] = test system: HepG2; experiment: Growth inhibition of human HepG2 cells; format: functional
[13] = test system: MCF7; experiment: Growth inhibition of human MCF7 cells; format: functional
[14] = test system: HeLa; experiment: Growth inhibition of human HeLa cells; format: functional
[15] = test system: MDA-MB-231; experiment: Growth inhibition of human MDA-MB-231 cells by microtiter plate assay; format: functional
[16] = test system: MCF7; experiment: Growth inhibition of human MCF7 cells by microtiter plate assay; format: functional
[17] = test system: DU-145; experiment: Growth inhibition of human DU145 cells by microtiter plate assay; format: functional

SMILES: COc1ccc(C(=O)/C=C/c2ccc(Oc3nnnn3-c3ccccc3)cc2)cc1OC
- IC50 [1]: 3.7 µg/mL (≈ 8.64 µM)
- IC50 [2]: 3 µg/mL (≈ 7 µM)

SMILES: COc1cc(/C=C/C(=O)c2ccc(Br)cc2)ccc1Oc1nnnn1-c1ccccc1
- IC50 [1]: 2.5 to 7 µg/mL (≈ 5.24 to 14.7 µM)
- IC50 [2]: 2.5 to 7 µg/mL (≈ 5.24 to 14.7 µM)

SMILES: Cc1ccc(-c2nn(-c3ccccc3)cc2-c2nnn(CC(=O)O)n2)cc1
- IC50 [3]: 7.23 to 48.3 µM
- IC50 [4]: 7.23 to 48.3 µM

SMILES: COc1ccc(-c2nn(-c3ccccc3)cc2-c2nnn(CC(=O)O)n2)cc1
- IC50 [3]: 7.23 to 48.3 µM
- IC50 [4]: 7.23 to 48.3 µM

SMILES: COc1cc(/C=C/C(=O)c2ccc(F)cc2)ccc1Oc1nnnn1-c1ccccc1
- IC50 [1]: 2.5 to 7 µg/mL (≈ 6 to 16.8 µM)
- IC50 [2]: 2.5 to 7 µg/mL (≈ 6 to 16.8 µM)

SMILES: O=C(O)c1cn(C2CC2)c2cc(N3CCN(C(=O)CCSc4nnnn4Cc4ccccc4)CC3)c(F)cc2c1=O
- GI50 [5]: 0.085 to 1.15 µM
- GI50 [6]: 0.085 to 1.15 µM
- GI50 [7]: 0.085 to 1.15 µM

SMILES: COc1cc(-n2nnnc2SCCC(=O)N2CCN(c3cc4c(cc3F)c(=O)c(C(=O)O)cn4C3CC3)CC2)cc(OC)c1OC
- GI50 [5]: 0.066 to 1.3 µM
- GI50 [6]: 0.066 to 1.3 µM
- GI50 [7]: 0.066 to 1.3 µM

SMILES: COc1ccc(C2C(c3nnn[nH]3)=C(N)Oc3ccc4ccccc4c32)cc1 (stereo not given)
- IC50 [8]: 15 to 87 µM
- IC50 [9]: 15 to 87 µM
- IC50 [10]: 15 to 87 µM
- IC50 [11]: 15 to 87 µM

SMILES: O=C(O)Cn1nnc(-c2cn(-c3ccccc3)nc2-c2ccccc2Cl)n1
- IC50 [3]: 6.43 to 18.2 µM
- IC50 [4]: 6.43 to 18.2 µM

SMILES: CCc1ccc(C2C(c3nnn[nH]3)=C(N)Oc3ccc4ccccc4c32)cc1 (stereo not given)
- IC50 [8]: 15 to 87 µM
- IC50 [9]: 15 to 87 µM
- IC50 [10]: 15 to 87 µM
- IC50 [11]: 15 to 87 µM

SMILES: COc1ccccc1C1C(c2nnn[nH]2)=C(N)Oc2ccc3ccccc3c21 (stereo not given)
- IC50 [8]: 15 to 87 µM
- IC50 [9]: 15 to 87 µM
- IC50 [10]: 15 to 87 µM
- IC50 [11]: 15 to 87 µM

SMILES: NC1=C(c2nnn[nH]2)C(c2ccc(Cl)cc2)c2c(ccc3ccccc23)O1 (stereo not given)
- IC50 [8]: 15 to 87 µM
- IC50 [9]: 15 to 87 µM
- IC50 [10]: 15 to 87 µM
- IC50 [11]: 15 to 87 µM

SMILES: COc1ccc(C(=O)/C=C/c2ccc(Oc3nnnn3-c3ccccc3)c(OC)c2)cc1OC
- IC50 [1]: 1.6 µg/mL (≈ 3.49 µM)
- IC50 [2]: 2.2 µg/mL (≈ 4.8 µM)

SMILES: O=c1[nH]cc(F)c(=O)[nH]1 [FLUOROURACIL]
- IC50 [8]: 10 to 17 µM
- IC50 [1]: 17.3 µg/mL (≈ 133 µM)
- IC50 [2]: 21.4 µg/mL (≈ 165 µM)
- IC50 [9]: 10 to 17 µM
- IC50 [10]: 10 to 17 µM
- IC50 [11]: 9.74 to 21.4 µg/mL

SMILES: NC1=C(c2nnn[nH]2)C(c2ccc(Br)cc2)c2c(ccc3ccccc23)O1 (stereo not given)
- IC50 [8]: 15 to 87 µM
- IC50 [9]: 15 to 87 µM
- IC50 [10]: 15 to 87 µM
- IC50 [11]: 15 to 87 µM

SMILES: CCn1cc(C(=O)O)c(=O)c2cnc(N3CCN(C(=O)CCSc4nnnn4-c4ccc(C(F)(F)F)cc4)CC3)nc21
- GI50 [5]: 0.066 to 1.3 µM
- GI50 [6]: 0.066 to 1.3 µM
- GI50 [7]: 0.066 to 1.3 µM

SMILES: NC1=C(c2nnn[nH]2)C(c2ccccc2Cl)c2c(ccc3ccccc23)O1 (stereo not given)
- IC50 [8]: 15 to 87 µM
- IC50 [9]: 15 to 87 µM
- IC50 [10]: 15 to 87 µM
- IC50 [11]: 15 to 87 µM

SMILES: O=C(O)c1cn(C2CC2)c2cc(N3CCN(C(=O)CCSc4nnnn4-c4ccc(C(F)(F)F)cc4)CC3)c(F)cc2c1=O
- GI50 [5]: 0.066 to 1.3 µM
- GI50 [6]: 0.066 to 1.3 µM
- GI50 [7]: 0.066 to 1.3 µM

SMILES: CCn1cc(C(=O)O)c(=O)c2cnc(N3CCN(C(=O)CCSc4nnnn4-c4ccc(F)c(F)c4F)CC3)nc21
- GI50 [5]: 0.066 to 1.3 µM
- GI50 [6]: 0.066 to 1.3 µM
- GI50 [7]: 0.066 to 1.3 µM

SMILES: CN(C)C(=O)NC(c1ccc(Cl)cc1)n1cnnn1 (stereo not given)
- GI50 [12]: 8.2 to 41 µM
- GI50 [13]: 8.2 to 41 µM
- GI50 [14]: 8.2 to 41 µM

SMILES: COc1cc(/C=C/C(=O)c2ccc(C)cc2)ccc1Oc1nnnn1-c1ccccc1
- IC50 [1]: 2.5 to 7 µg/mL (≈ 6.06 to 17 µM)
- IC50 [2]: 2.5 to 7 µg/mL (≈ 6.06 to 17 µM)

SMILES: NC(=S)NNC(c1ccc(Cl)cc1)n1cnnn1 (stereo not given)
- GI50 [12]: 5.2 to 29.8 µM
- GI50 [13]: 5.2 to 29.8 µM
- GI50 [14]: 5.2 to 29.8 µM

SMILES: O=C(O)c1cn(C2CC2)c2cc(N3CCN(C(=O)CCSc4nnnn4-c4ccccc4)CC3)c(F)cc2c1=O
- GI50 [5]: 0.085 to 1.15 µM
- GI50 [6]: 0.085 to 1.15 µM
- GI50 [7]: 0.085 to 1.15 µM

SMILES: COc1ccc(C2C(c3nnn[nH]3)=C(N)Oc3ccc4ccccc4c32)c(OC)c1 (stereo not given)
- IC50 [8]: 15 to 26 µM
- IC50 [9]: 15 to 26 µM
- IC50 [10]: 15 to 26 µM
- IC50 [11]: 15 to 26 µM

SMILES: COc1ccc(OC)c(C2C(c3nnn[nH]3)=C(N)Oc3ccc4ccccc4c32)c1 (stereo not given)
- IC50 [8]: 15 to 87 µM
- IC50 [9]: 15 to 87 µM
- IC50 [10]: 15 to 87 µM
- IC50 [11]: 15 to 87 µM

SMILES: NC1=C(c2nnn[nH]2)C(c2ccccc2F)c2c(ccc3ccccc23)O1 (stereo not given)
- IC50 [8]: 15 to 87 µM
- IC50 [9]: 15 to 87 µM
- IC50 [10]: 15 to 87 µM
- IC50 [11]: 15 to 87 µM

SMILES: CCc1cc2c(cc1OS(N)(=O)=O)CC[C@@H]1[C@@H]2CC[C@]2(C)[C@@H](Cc3nnn[nH]3)CC[C@@H]12
- GI50 [15]: 0.34 to 100 µM
- GI50 [16]: 0.34 to 100 µM
- GI50 [17]: 0.34 to 100 µM
